According to US8911723B2, “Hybrid hydrogel scaffold compositions and methods of use” (Escape Therapeutics, Inc., priority 2010, dated 2014):
Entries after “also recorded” stand apart in the source; their conditions may differ.

Experiments:
[1] = test system: hAMSCs; assay: Cell surface marker expression of encapsulated hAMSCs (RT-PCR); type: cell-based, human; details: after 2 weeks of culture, data not shown
From the text: hAMSCs were confirmed to meet the minimal criteria for defining multipotent MSCs according to previously described methods [Dominici et al., “Minimal criteria for defining multipotent mesenchymal stromal cells. The International Society for Cellular Therapy position statement,” Cytotherapy 2006; 8:315-7.]. First, hAMSCs were plastic-adherent when maintained in standard culture conditions using tissue culture flasks. […] Third, hAMSCs were able to differentiate to osteoblasts, adipocytes and chondroblasts under standard in vitro differentiating conditions.

[2] = test system: hAMSCs; assay: hAMSC morphology and distribution (aggregation) after encapsulation in hydrogels; type: cell-based, human; details: hAMSCs encapsulated in hydrogel
Experimental: Cells were encapsulated in the appropriate hydrogel by gently mixing hAMSCs with PO, EFK8, or EFK8-PO at a final concentration of 1×10^6 cells/ml. When seeding hAMSCs in PO or EFK8-PO, hydrogels were kept on ice to prevent premature gelation. Fifty μL of the aliquot of hydrogel/cell mixture was quickly transferred into a 96-well microplate. Encapsulated hAMSCs were then incubated at 37° C. for 5 min to induce gel formation. One hundred μL of DMEM medium was then added into each well. Fresh medium was changed 3 times within the first 30 min in order to neutralize the acidic pH of the hydrogels, and then changed every other day during culture. After various treatments described below and at the appropriate time points, a 1000 μL pipette tip was cut at its distal end to facilitate our ability to gently draw up 50 μL of encapsulated hAMSCs from the top of the well. Cells were then gently placed onto a slide to allow for examination under light field microscopy. This process was repeated 3 times per well, allowing for assessment of a total of 3 different depth layers (top, middle, and bottom) of the encapsulated cell mixture. This method of encapsulation can generally be used for encapsulating most cell-types in the scaffolds described herein. […]

[3] = Cell viability of hydrogel-encapsulated hAMSCs (trypan blue); type: cell-based; details: human, hAMSCs encapsulated in EFK8 hydrogel, through 14 days of culture, read-out: hAMSC viability
Experimental: hAMSCs were encapsulated in PO, EFK8, or EFK8-PO and cultured in a 37° C. humidified 5% CO2 incubator for 3 hrs, 1, 3, 6, 10, or 14 days. Fifty μL of cells was then mixed with an equal volume of 1% trypan blue and observed under light microscopy. Trypsin-EDTA (0.25%) was used to separate cells when cell aggregation occurred. Viability was calculated as the percentage of living cells over total cells.

[4] = test system: hAMSCs; assay: WST-1 Cell Proliferation assay of encapsulated hAMSCs; type: cell-based, human; details: days 1-4 of culture
[5] = Rheology, temperature sweep of hydrogels (AR-G2 rheometer); type: physicochemical; details: for lost modulus G″ / storage modulus G′: 1% w/v in PBS
Experimental: The viscoelastic properties of 3 hydrogels were investigated with a, AR-G2 rheometer (TA Instruments, New Castle, Del.). The parameters of temperature sweep were set as follows: range 4-40° C., change rate 5° C./min, strain 2%; frequency 1 Hz. Three parameters were recorded: 1) storage modulus G′ estimates the elastic component of mechanical strength, 2) lost modulus G″ estimates the viscous component of mechanical strength, and 3) phase difference Delta indicates the elastic or viscous property of a material. Zero degree of Delta implies a purely elastic material, while a purely viscous material has a Delta of 90 degrees. This same method can be used to analyze the viscoelastic properties of any of the scaffolds/hydrogels of the invention.
To determine the mechanical properties of PO, EFK8, and EFK8-PO hydrogels, we performed rheological analyses. The viscoelastic behaviors of EFK8 (1% w/v in PBS), PO (20% w/v in PBS), and EFK8-PO (20% w/v PO plus 1% w/v EFK8, both in PBS) hydrogels are illustrated in FIG. 1. At 25° C., G′ of EFK8 hydrogel was ˜10.5 Pa and G″ was ˜6.2 Pa. […] Phase difference Delta increased from 30 degrees to 70 degrees (FIG. 1A). […] EFK8 hydrogel was very weak and less viscous both at room temperature and 37° C. […] FIG. 1C illustrates the viscoelastic behavior of EFK8-PO.

[6] = test system: hAMSCs; assay: In vitro osteogenic differentiation of encapsulated hAMSCs (ALP, alizarin red S); type: cell-based, human; details: osteogenic differentiation medium, 14 days
From the text: (§1) hAMSCs were encapsulated in PO, EFK8, and EFK8-PO as above. Adipogenic or osteogenic differentiation was induced by culturing cells in adipogenic or osteogenic differentiation medium (AD-medium or OS-medium, respectively, Cell Applications, San Diego, Calif.) for 7 days or 14 days, respectively, according to our previously published method, which is hereby incorporated by reference, Zhao L et al., “TGF-beta 1 Induces Osteogenic Differentiation of Murine Bone Marrow Stromal Cells,” Tissue Eng Part A 2009, In press. Fresh induction media was added to every other day.
Alkaline Phosphatase (ALP) staining was used to detect mineralization in hAMSCs during osteogenic differentiation. After culturing encapsulated hAMSCs for 14 days in the various hydrogels, the medium was aspirated and cells were stained with StemTag ALP (Cell Biolabs, San Diego, Calif.) according to the manufacturer's protocol. Briefly, after washing twice with PBS, cells were exposed to fixing solution for 2 min, then washed again with PBS and incubated with StemTAG ALP staining solution for 30 min in the dark. ALP staining solution was aspirated and cells were then washed with PBS and observed under light microscopy. […]

[7] = test system: hAMSCs in nude mice; assay: In vivo adipogenic differentiation of hydrogel-encapsulated hAMSCs injected subcutaneously; details: subcutaneous dorsal neck, 30 days post-injection
Experimental: All mouse experiments were conducted in accordance with the Guide for the Care and Use of Laboratory Animals and were approved by each Institution's respective Administrative Panel on Laboratory Animal Care. hAMSCs were encapsulated in PO, EFK8, and EFK8-PO hydrogels at a final concentration of 1×10^6 cells/ml and mixed gently in the hydrogels. PO and EFK8-PO were kept on ice to prevent premature gelation during the seeding process. Two hundred μL of each encapsulation was injected subcutaneously using 1 ml syringes into the dorsal neck area of female nude mice (8 weeks of age). Two hundred μL of PBS was used as a control. The nude mice were then allowed to recover, and then returned to their cages. After 30 days, mice were sacrificed using CO2 euthanasia and dorsal neck skin harvested immediately. […]
Specimens were frozen sectioned using either vertical or horizontal slices 5-10 μm thick, then post-fixed in 100% cold acetone at −20° C., blocked for 1 hr with goat serum and then incubated with the appropriate mouse anti-human nuclei monoclonal primary antibody (Chemicon, Billerica, Mass.) at the desired dilution (1:50 to 1:250) overnight at 4° C. Signal was detected using the Vectastain ABC Elite Mouse/Rabbit/Goat IgG detection kit (Vector Laboratories, Burlingame, Calif.) following the manufacturer's protocol. […]

[8] = test system: bleeding hand; assay: Hemostatic agent test on a bleeding hand; details: in vivo
Experimental: In one embodiment, the scaffolds can be used as a hemostatic agent. […] When a bleeding hand was treated with EFK8-PO, bleeding stopped at one minute. When a bleeding hand was treated with PO alone, the hand was still bleeding at 10 minutes.

[9] = test system: hAMSCs; assay: In vitro adipogenic differentiation of encapsulated hAMSCs (Oil Red O); type: cell-based, human
From the text: as §1
Red oil staining was used to confirm hAMSC adipogenic differentiation. Cells were washed with PBS and fixed with 10% formalin for 20 min. Cells were then washed twice with PBS, once with 60% isopropyl alcohol, stained with Oil Red O solution (Sigma-Aldrich) for 15 min, washed with PBS once more, and then observed by light field microscopy, Hata K et al., “A CCAAT/enhancer binding protein beta isoform, liver-enriched inhibitory protein, regulates commitment of osteoblasts and adipocytes,” Mol Cell Biol, 2005, 25(5):1971-1979, which is hereby incorporated by reference.

Ac-KFEFKFEF-NH2 [EFK8, AcN-KFEFKFEF-CONH2]
cell surface marker expression pattern [1]: expressed CD73, CD90, and CD105 but were negative for CD14, CD19, CD34, CD45, and HLA class II | Aggregation Day 3 ([2]; 3 days of culture): <3-5% | Aggregation Day 10 ([2]; 10 days of culture): ~10% | viability [3]: > 80% | hAMSC proliferation (WST-1) [4]: significantly increased hAMSC proliferation rates; also recorded: promote cell proliferation | lost modulus G″ ([5]; 25° C.): ~6.2 Pa | storage modulus G′ ([5]; 25° C.): ~10.5 Pa | lost modulus G″ ([5]; 37° C.): 5 Pa | storage modulus G′ ([5]; 37° C.): 2 Pa | phase difference Delta ([5]; end of the increase (37° C.)): 70 degrees | phase difference Delta ([5]; start of the increase (25° C.)): 30 degrees | Osteogenic AP (% +) Day 14 [6]: 88±9% | Osteogenic Alizarin Red (% +) Day 14 [6]: 54±7% | new fat (adipose) tissue / hAMSC engraftment and adipogenic differentiation [7]: did not observe new adipose tissue | effectiveness as a hemostatic agent (in words) [8]: also effective as a hemostatic agent | Adipogenic Oil-Red-O (% +) Day 4 ([9]; adipogenic differentiation medium, 4 days): 42±6% | Adipogenic Oil-Red-O (% +) Day 7 ([9]; adipogenic differentiation medium, 7 days): 68±8% | differentiation of encapsulated hAMSCs on induction medium (in words) ([9]; adipogenic or osteogenic induction medium): differentiated into adipocytes or osteoblasts
